These results are taken from patent US6566081B1, “Methods of identifying a compound which modulates the non-transcriptional non-map-kinase induced effects of steroid hormones” (The Brigham and Women's Hospital, Inc., priority 1999, dated 2003).

What all share (type): cell-based, human
The test system of one data set is NO release. Nature of the data set: Nitrite assay (NO accumulation from endothelial cells). As to conditions: for stimulation of NO release / production (nitrite accumulation): 30 min, E2/αE2 10 nM, insulin 100 nM, acetylcholine; for effect on E2-induced NO release / production: E2 10 nM 30 min, ICI 10 μM, wortmannin 30 nM. On the procedure: NO accumulation from serum-starved endothelial cells was determined by a modified nitrite assay using 2, 3 diaminonaphtalene as described previously.^33 Fluorescence of 1-(H)-naphtotriazole was measured with excitation and emission wavelengths of 365 and 450 nm, respectively. Standard curves were constructed with known amounts of sodium nitrite. Nonspecific fluorescence was determined in the presence of LNMA (3 mM).

In another data set the test system is Akt/PKB. In words: Akt kinase assay (immunoprecipitated Akt, GSK-3 peptide). Conditions: for stimulation of Akt kinase activity (words): E2/αE2 10 nM, insulin 100 nM. On the procedure: Immunoprecipitated Akt kinase activity was assayed on endothelial cell lysates by using the Aktl/PKBα immunoprecipitation kinase assay kit (Upstate Biotechnology, Lake Placid, N.Y.). Endothelial cells were starved in phenol red-free199 medium with 0.4% estrogen-deprived FBS, treated, washed, and then harvested in ice-cold Buffer A (50 mM Tris-HCl, pH 7.5, 1 mM EDTA, 1 mM EGTA, […] Na3VO4, 0.1% (v/v) 2-mercaptoethanol, 1% Triton X-100, 50 mM sodium fluoride, 5 mM sodium pyrophosphate, 10 mM sodium glycerophosphate, 0.1 mM PMSF, 1 μg/mL of aprotinin, pepstatin, leupeptin and 1 μM microcystin). The cleared cell lysates were incubated for 1 hour at 4° C. with 4 μg/tube of anit-Akt1/PKBα PH domain immunoaffinity purified sheep IgG, after which 50 μL of a 1:1 (v/v) protein G-agarose slurry was added for an additional hour of incubation at 4° C. After centrifugation, the immunoprecipitates were washed three times with Buffer A containing 0.5 M NaCl, then two times with Buffer B (50 mM Tris-HCl, pH 7.5, 0.03% (w/v) Brij-35, 0.1 mM EGTA, 0.1% (v/v) 2-mercaptoethanol), and finally twice with 1×Assay Buffer (20 mM MOPS, pH 7.2, 25 mM β-glycerol phosphate, 5 mM EGTA, 1 mM Na3VO4, 1 mM DTT).
The immunoprecipitates were resuspended in 10 μL of ice-cold 1×Assay Buffer, and were sequentially added: 10 μL of 40 μM PKA inhibitor peptide ([…]-NH2—corresponding to residues 7-23 of human PKA inhibitor), 10 μL of Akt/PKB specific substrate peptide (100 μM) (RPRAATF—corresponding to the phosphorylation site of glycogen synthase kinase-3, specifically targeted by Akt/PKB, but not by other protein kinases such as Rsk-2 and p70 S6 kinase), and 10 μL of [γ-^32P]ATP stock solution (1×Assay Buffer with 500 μM ATP, 75 mM MgCl2, containing 1 μCi/μL [γ^32-P]ATP, 3000 Ci/mmol). The reaction was incubated at 37° C. for 30 minutes, after which 40 μL of the supernatant was mixed with 20 μL of 40% TCA and incubated for 5 minutes at room temperature. 40 μL of each final fraction were spotted onto the center of a 2 cm×2 cm P81 phosphocellulose paper. The assay squares were washed three times with 0.75% phosphoric acid for five minutes at room temperature, then once with acetone. The squares were then transferred to vials containing a liquid scintillation cocktail and read in a scintillation counter. Blank reaction for the detection of the unspecific background were performed by substituting the cell lysate with Buffer A at the beginning of the procedure, and aspecific endogenous phosphorylation of proteins in the sample extract was estimated by substituting in some samples 1×Assay Buffer for the Akt/PKB specific substrate peptide.

The next data set has as its system PI3-kinase. In words: PI3-kinase assay on p85 immunoprecipitates of endothelial cell lysates. As to conditions: for stimulation of PI3-kinase activity: E2/αE2 10 nM, insulin 100 nM; for effect on E2-induced PI3-kinase activation: E2 10 nM 20 min, ICI 10 μM, wortmannin 30 nM. The procedure:
PI3kinase activity in endothelial cell lysates was assayed using the borate thin layer chromatography method, as described.^34 Following a 6 h incubation in serum- and estrogen-deficient medium 199, endothelial cells were treated according to the indicated conditions, washed, and harvested in ice-cold lysis buffer (137 mM NaCl, 20 mM Tris-HCl, pH 7.4, 1 mM CaCl2, 1 mM Mg Cl2, 0.1 mM Na3VO4, 1% NP-40). After pelleting the cell debris, the supernatant was incubated for 1 hour at 4° C. with 5 μL of a rabbit antiserum directed against the p85 regulatory subunit of the PI3-kinase (Upstate Biotechnology, Lake Placid, N.Y.), and immunoprecipitated with the addition of 50 μL of a 1:1 slurry of protein A-agarose for 1 hour at 4° C. Following centrifugation, the immunoprecipitates were washed three times with lysis buffer, three times with 0.1 M Tris-HCl, pH 7.4, 5 mM LiCl, 0.1 mM Na3VO4, followed by two washes with 10 mM Tris-HCl, pH 7.4, 150 mM NaCl, 5 mM EDTA, 0.1 mM Na3VO4.
The immunoprecipitates were then mixed with 50 μL Tris-HCl, pH 7.4, 150 mM NaCl, 5 mM EDTA, 20 μg of phosphatidylinositol (Sigma, Saint Louis, Mo.), 10 μL 100 mM MgCl2 and 5 μL of a 0.88 mM ATP, 20 mM MgCl2 solution, containing 30 μCi of [γ-^32P]ATP (3000 Ci/mmol; NEN Life Science Products, Boston, Mass.). […] The phospholipids were extracted with 160 μL of chloroform/methanol (1:1, v/v). 50 μL of the organic phase, containing the labeled PI3-kinase products were separated by borate thin layer chromatography on glass-backed Silica Gel 60 plates (EM Separations, Gibbstown, N.J.) pretreated with a solution containing 25 mM trans-1,2-diaminocyclohexane-N,N,N′N′-tetraacetic acid (CDTA, Sigma, Saint Louis, Mo.), 66% (v/v) ethanol and 0.06 N NaOH, dried for 1 hour and then baked at 100° C. for 15 minutes. The chromatography was developed with a solution containing 37.5% (v/v) methanol, 30% (v/v) chloroform, 22.5% (v/v) pyridine (Sigma, Saint Louis, Mo.), 1.33% (v/v) formic acid, […] boric acid and 8.5 mM butylated hydroxytoluene (Sigma, Saint Louis, Mo.), briefly dried and exposed to autoradiography.

“Also recorded” adds a separate entry of the source.

Regarding 17β-estradiol [E2], the “stimulation of NO release / production (nitrite accumulation)” value in the data set on NO release is recorded as “increases NO release”. In addition, in the data set with Akt/PKB (20 min), the “stimulation of Akt kinase activity (words)” value is reported as “activated; also recorded: stimulated”. Besides, in the data set with Akt/PKB (E2 stimulation, 10 min), the “increase in Akt kinase activity after 10 min” value is given as 1.5 fold. Moreover, the “increase in Akt kinase activity after 20 min” value in the data set on Akt/PKB (E2 stimulation, 20 min) is listed as 2.3 fold. Also, the “stimulation of PI3-kinase activity” value in the data set on PI3-kinase (20 min) is listed as “strong activation”. Besides, the “increase in PI3-kinase activity compared to baseline” value in the data set on PI3-kinase (E2 10 nM, 20 min) is “approximately 5 fold”. Moreover, the “PI3-kinase activity in the initial phase of stimulation” value in the data set on PI3-kinase (E2 10 nM, ≤10 min) was “little or no PI3-kinase activity”.
Regarding `C[C@]12CC[C@@H]3c4ccc(O)cc4C[C@@H](CCCCCCCCC[S+]([O-])CCCC(F)(F)C(F)(F)F)[C@H]3[C@@H]1CC[C@@H]2O` (stereo partly shown) [ICI 187,780], the “effect on E2-induced NO release / production” value in the data set on NO release is recorded as “completely blocked”; in the data set on NO release (listed as ICI 182,780) it was “prevent”. Besides, in the data set with NO release (acetylcholine 30 min), the “effect on acetylcholine-induced NO accumulation” value is on record as “not influenced; also recorded: not affected”. For the same compound, the “effect on E2-stimulated Akt kinase activity” value with Akt/PKB (ICI 10 μM, wortmannin 30 nM) is reported as “nearly completely abolished; also recorded: almost completely inhibited”. The “effect on E2-induced PI3-kinase activation” value in the data set on PI3-kinase was “full inhibition; also recorded: completely inhibited”; in the data set on PI3-kinase (listed as ICI 182,780), “completely blocked”.
In the case of “insulin: known activator of the PI3-kinase/Akt pathway”, the “stimulation of NO release / production (nitrite accumulation)” value was “able to stimulate” in the data set with NO release and “activates nitrite release” in the data set on NO release (listed as Insulin). Further, the “stimulation of Akt kinase activity (words)” value in the data set on Akt/PKB (20 min) is on record as “substantial increase”; with Akt/PKB (20 min, listed as Insulin), “marked activation”. For the same compound, the “stimulation of PI3-kinase activity” value is “comparable increase” in the data set on PI3-kinase (20 min) and “marked activation” in the data set on PI3-kinase (20 min, listed as Insulin).
